pIC50: −log10 of the molar value. Like-named read-outs stand apart in the source and are kept apart here.
Legend:
[1] = test system: 80S14 (p21-deficient) cells; assay: Cytotoxicity assay using isogenic cell lines: IC50 in 80S14 (p21-deficient) cells, SRB; format: cell-based, human; details: for pIC50: SRB; for IC50: 80S14, 120 h
Procedure, shortened: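 80S14 (p21-deficient) cells seeded at 12,000 cells/well overnight, then exposed 5 days at 37 °C to serial dilutions (5 pM–50 μM or 170 pg/ml–10 μg/ml). TCA-fixed, sulforhodamine B-stained, absorbance at 560 nm; IC50 taken from cytotoxicity curves versus untreated controls.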

LoVo Colon cell line = assay: Cytotoxicity assay using LoVo colon cell line, SRB; format: cell-based; details: read-out: Inhibition of LoVo
Protocol: Cytotoxicity Assay Using LoVo Colon Cell Line: • 1. LoVo Colon cell lines were cultured in RPMI 1640 medium (Gibco/Invitrogen Life Sciences) supplemented with 10% fetal bovine serum (FBS, Gibco) and 50 μg/ml entamicin (Gibco). Cells were maintained at 37° C. under 7% CO2. • 2. Cells were seeded in 96-well microtiter plates (Corning/Costar) in a volume of 0.15 ml of growth medium (4000 cells/well). Plates were incubated at 37° C. overnight (18-24 hours). • 3. Serial dilutions of the test agent were added to each well. Dilutions were prepared in growth medium. One of two dose ranges was used: 5 pM to 20 μM or 170 pg/ml to 10 μg/ml. Cells were incubated with the test compounds for 4 days at 37° C. • 4. Surviving cells were processed using the SRB asay, as described above.
5. The drug concentration that inhibits cell proliferation by 50% relative to untreated controls (IC50) was determined from cytotoxicity curves using the LSW Toolbox graphing application.

[2] = Homo sapiens, 120 h, 80S14 p21-deficient cells, 5 days incubation, read-out: IC50 for 80SI4
[3] = Homo sapiens, 96 h, LoVo colon cells, 4 days incubation, SRB
[4] = Homo sapiens, 120 h, 80S14 (p21-deficient) cells, 5 days, class symbols, read-out: IC50 for 80S14
[5] = Homo sapiens, 96 h, Cellular activity in LoVo cell, 4 days incubation, SRB

Row | Compound | pIC50 [1, 4] | pIC50 (LoVo Colon cell line; [5]) | further results
1 | COc1ccccc1C(=O)Nc1cccc(-c2ccnc3c(C(=O)c4cccs4)cnn23)c1 [Example 93, 2-methoxy-N-{3-[3-(thien-2-ylcarbonyl)pyrazolo[1,5-a]pyrimidin-7-yl]phenyl}benzamide] | – | – | pIC50 [1, 2]: > 6.00; pIC50 (LoVo Colon cell line; [3]): > 7.00
2 | CCC(C)NC(=O)Nc1cccc(-c2ccnc3c(C(=O)c4cccs4)cnn23)c1 (stereo not drawn) [Example 158, N-(sec-butyl)-N′-{3-[3-(thien-2-ylcarbonyl)pyrazolo[1,5-a]pyrimidin-7-yl]phenyl}urea] | – | – | pIC50 [1, 2]: > 6.00; pIC50 (LoVo Colon cell line; [3]): > 7.00
3 | O=C(c1cccs1)c1cnn2c(-c3ccc(F)c(-c4ccc(CO)cc4)c3)ccnc12 [Example 455, {7-[6-Fluoro-4′-(hydroxymethyl)-1,1′-biphenyl-3-yl]pyrazolo[1,5-a]pyrimidin-3-yl}(thien-2-yl)methanone] | 5.00 to 6.00 | 6.00 to 7.00 | –
4 | CCCCN(C)C(=O)Nc1cccc(-c2ccnc3c(C(=O)c4cccs4)cnn23)c1 [Example 156, N-butyl-N-methyl-N′-{3-[3-(thien-2-ylcarbonyl)pyrazolo[1,5-a]primidin-7-yl]phenyl}urea] | – | – | pIC50 ([1]; 80S14 p21-deficient cells, 5 days incubation, read-out: IC50 for 80SI4): > 6.00; pIC50 (LoVo Colon cell line; LoVo colon cells, 4 days incubation, SRB): 6.00 to 7.00
5 | CC(C)CC(=O)Nc1cccc(-c2ccnc3c(-c4cccc5cccnc45)cnn23)c1 [Example 468, 3-Methyl-N-[3-(3-quinolin-8-ylpyrazolo[1,5-a]pyrimidin-7-yl)phenyl]butanamide] | 5.00 to 6.00 | 6.00 to 7.00 | –
6 | Cc1cc(-c2cccc(NC(=O)NC(C)C)c2)n2ncc(C(=O)c3cccs3)c2n1 [Example 207, N-isopropyl-N′-{3-[5-methyl-3-(thien-2-ylcarbonyl)pyrazolo[1,5-a]pyrimidin-7-yl]phenyl}urea] | – | – | pIC50 [1, 2]: > 6.00; pIC50 (LoVo Colon cell line; [3]): 6.00 to 7.00
7 | C/C=C(\C)CNc1cccc(-c2ccnc3c(C(=O)c4cccs4)cnn23)c1 [Example 431, [7-(3-{[(2E)-2-Methylbut-2-enyl]amino}phenyl)pyrazolo[1,5-a]pyrimidin-3-yl] (thien-2-yl)methanone] | 5.00 to 6.00 | 6.00 to 7.00 | –
8 | Cc1ccc(-c2ccnc3c(C(=O)c4cccs4)cnn23)cc1NC(=O)NC(C)C [Example 311, N-Isopropyl-N′-{2-methyl-5-[3-(2-thienylcarbonyl)pyrazolo[1,5-a]pyrimidin-7-yl]phenyl}urea] | > 6.00 | > 7.00 | –
9 | O=C(c1cccs1)c1cnn2c(-c3cccc(-c4nnn(Cc5ccccn5)n4)c3)ccnc12 [Example 509, (7-{3-[2-(Pyridin-2-ylmethyl)-2H-tetraazol-5-yl]phenyl}pyrazolo[1,5-a]pyrimidin-3-yl)(thien-2-yl)methanone] | > 6.00 | 6.00 to 7.00 | –
10 | C=CCOC(=O)Nc1cccc(-c2ccnc3c(C(=O)c4cccs4)cnn23)c1 [Example 14, allyl 3-[3-(thien-2-ylcarbonyl)pyrazolo[1,5-a]pyrimidin-7-yl]phenylcarbamate] | – | – | IC50 ([1]; Homo sapiens, read-out: IC50 for 80SI4 (uM)): < 1 µM; pIC50 (LoVo Colon cell line; Homo sapiens, LoVo, 96 h): > 7.00
11 | O=C(c1cccs1)c1cnn2c(-c3cccc(-c4nnn[nH]4)c3)ccnc12 [Example 501, {7-[3-(1H-Tetraazol-5-yl)phenyl]pyrazolo[1,5-a]pyrimidin-3-yl}(thien-2-yl)methanone] | 4.30 to 5.00 | 4.70 to 6.00 | –
12 | CC(C)NC(=O)Nc1ccc(-c2ccnc3c(C(=O)c4cccs4)cnn23)s1 [Example 329, N-Isopropyl-N′-{5-[3-(thien-2-ylcarbonyl)pyrazolo[1,5-a]pyrimidin-7-yl]thien-2-yl}urea] | 5.00 to 6.00 | 6.00 to 7.00 | –
13 | CC(C)CC(=O)Nc1cccc(-c2ccnc3c(-c4ccc(-c5ccccc5)cc4)cnn23)c1 [Example 486, N-{3-[3-(1,1′-Biphenyl-4-yl)pyrazolo[1,5-a]pyrimidin-7-yl]phenyl}-3-methylbutanamide] | 4.30 to 5.00 | 4.70 to 6.00 | –
14 | Cc1cc(-c2cccc(NC(=O)c3ccccc3)c2)n2ncc(C(=O)c3cccs3)c2n1 [Example 202, N-{3-[5-methyl-3-(thien-2-ylcarbonyl)pyrazolo[1,5-a]pyrimidin-7-yl]phenyl}benzamide] | – | – | pIC50 [1, 2]: 4.30 to 5.00; pIC50 (LoVo Colon cell line; [3]): 6.00 to 7.00
15 | O=C(Nc1ccc(-c2ccnc3c(C(=O)c4cccs4)cnn23)s1)c1ccccc1 [Example 361, N-{5-[3-(Thien-2-ylcarbonyl)pyrazolo[1,5-a]pyrimidin-7-yl]thien-2-yl}benzamide] | 4.30 to 5.00 | 4.70 to 6.00 | –
16 | [7-[3-(2-Methyl-1H-imidazol-1-yl)phenyl]-pyrazolo[1,5-a]pyrimidin-3-vy]-2-thienyl-methanone [Example 245] | – | – | pIC50 ([1]; 80S14 (p21-deficient) cells, 5 days, class symbols, read-out: IC50 for 80S14): 4.30 to 5.00; pIC50 (LoVo Colon cell line; Cellular activity in LoVo cell, 4 days incubation, SRB): 4.70 to 6.00
17 | CCc1ccc(-c2cccc(-c3ccnc4c(C(=O)c5cccs5)cnn34)c2)cc1 [Example 456, [7-(4′-Ethyl-1,1′-biphenyl-3-yl)pyrazolo[1,5-a]pyrimidin-3-yl](thien-2-yl)methanone] | > 6.00 | > 7.00 | –
18 | O=C(Nc1cccc(-c2ccnc3c(C(=O)c4cccs4)cnn23)c1)c1ccccc1 [Example 284, N-{3-[3-(2-Thienylcarbonyl)pyrazolo[1,5-a]pyrimidin-7-yl]phenyl}benzamide] | > 6.00 | > 7.00 | –
19 | CC(C)NC(=S)Nc1cccc(-c2ccnc3c(C(=O)c4cccs4)cnn23)c1 [Example 389, N-Isopropyl-N′-{3-[3-(thien-2-ylcarbonyl)pyrazolo[1,5-a]pyrimidin-7-yl]phenyl}thiourea] | > 6.00 | > 7.00 | –
20 | O=C(CCc1cccnc1)Nc1cccc(-c2ccnc3c(C(=O)c4cccs4)cnn23)c1 [Example 448, 3-Pyridin-3-yl-N-{3-[3-(thien-2-ylcarbonyl)pyrazolo[1,5-a]pyrimidin-7-yl]phenyl}propanamide] | 4.30 to 5.00 | 6.00 to 7.00 | –
21 | O=C(CSc1ccncc1)Nc1cccc(-c2ccnc3c(C(=O)c4cccs4)cnn23)c1 [Example 449, 2-(Pyridin-4-ylthio)-N-{3-[3-(thien-2-ylcarbonyl)pyrazolo[1,5-a]pyrimidin-7-yl]phenyl}acetamide] | 4.30 to 5.00 | 6.00 to 7.00 | –
22 | O=C(Nc1cccc(-c2ccnc3c(C(=O)c4cccs4)cnn23)c1)NC1CCCC1 [Example 162, N-cyclopentyl-N′-{3-[3-(thien-2-ylcarbonyl)pyrazolo[1,5-a]pyrimidin-7-yl]phenyl}urea] | – | – | pIC50 [1, 2]: > 6.00; pIC50 (LoVo Colon cell line; [3]): > 7.00
23 | O=C(Nc1cccc(-c2ccnc3c(C(=O)c4cccs4)cnn23)c1)c1cnccn1 [Example 385, N-{3-[3-(Thien-2-ylcarbonyl)pyrazolo[1,5-a]pyrimidin-7-yl]phenyl}pyrazine-2-carboxamide] | > 6.00 | > 7.00 | –
24 | O=C(Nc1cccc(-c2ccnc3c(C(=O)c4cccs4)cnn23)c1)OC1CCCC1 [Example 171, cyclopentyl 3-[3-(thien-2-ylcarbonyl)pyrazolo[1,5-a]pyrimidin-7-yl]phenylcarbamate] | – | – | pIC50 [1, 2]: > 6.00; pIC50 (LoVo Colon cell line; [3]): > 7.00
25 | CCNc1cccc(-c2ccnc3c(C(=O)c4cccs4)cnn23)c1 [Example 422, {7-[3-(Ethylamino)phenyl]pyrazolo[1,5-a]pyrimidin-3-yl}(thien-2-yl)methanone] | 5.00 to 6.00 | 6.00 to 7.00 | –
26 | CC(C)CC(=O)Nc1cc(-c2ccnc3c(C(=O)c4cccs4)cnn23)ccc1F [Example 342, N-{2-Fluoro-5-[3-(thien-2-ylcarbonyl)pyrazolo[1,5-a]pyrimidin-7-yl]phenyl}-3-methylbutanamide] | – | – | IC50 ([1]; Homo sapiens, read-out: IC50 for 80S14 (uM)): < 1 µM; pIC50 (LoVo Colon cell line; Homo sapiens, LoVo, 96 h): > 7.00
27 | O=C(O)c1ccccc1C(=O)Nc1cccc(-c2ccnc3c(C(=O)c4cccs4)cnn23)c1 [Example 443, 2-[({3-[3-(Thien-2-ylcarbonyl)pyrazolo[1,5-a]pyrimidin-7-yl]phenyl}amino)carbonyl]benzoic acid] | 4.30 to 5.00 | 4.70 to 6.00 | –
28 | CC(CCNc1cccc(-c2ccnc3c(C(=O)c4cccs4)cnn23)c1)CC(C)(C)C (stereo not drawn) [Example 433, Thien-2-yl(7-{3-[(3,5,5-trimethylhexyl)amino]phenyl}pyrazolo[1,5-a]pyrimidin-3-yl)methanone] | 5.00 to 6.00 | 6.00 to 7.00 | –
29 | CC(C)(C)CC(=O)Nc1cc(-c2ccnc3c(C(=O)c4cccs4)cnn23)ccc1F [Example 355, N-{2-Fluoro-5-[3-(thien-2-ylcarbonyl)pyrazolo[1,5-a]pyrimidin-7-yl]phenyl}-3,3-dimethylbutanamide] | > 6.00 | > 7.00 | –
30 | Nc1cccc(-c2cccc(-c3ccnc4c(C(=O)c5cccs5)cnn34)c2)c1 [Example 451, [7-(3′-Amino-1,1′-biphenyl-3-yl)pyrazolo[1,5-a]pyrimidin-3-yl](thien-2-yl)methanone] | > 6.00 | 6.00 to 7.00 | –

— patent US20060063784A1, “Method of using substituted pyrazolo [1,5-a] pyrimidines” (priority 2004, published 2006)
